Experimental data: US9771563B2, “Chemical approaches for generation of induced pluripotent stem cells” (The Scripps Research Institute, priority 2008, dated 2017)

Tests used:
[1] = tested on: mouse embryonic fibroblasts (129 or OG2 MEFs); assay: Screen for iPSC generation from MEFs transduced with Oct4/Klf4 (OK); format: cell-based; settings: for hit in second synergist screen: OK-transduced MEFs, 1 μM BIX in medium, compound 0.5-2 μM, not followed up
Description: Unmodified MEFs derived from E13-14 embryos of the 129 mice were used for the initial screen. MEFs were plated on Matrigel at 3.5×10^4 cells/well of a 6-well plate and transduced with OK (retroviral vectors expressing Oct4 and Klf4) alone. Within 14-21 days, treated cells were assessed for the appearance of colonies that had the characteristic embryonic stem cell (ESC) colony morphology and were positive for the pluripotency marker alkaline phosphatase (ALP). Such OK-transduced cells generated only a few small non-compact colonies, which were weakly positive for ALP expression. These colonies initially appeared within 21 days after viral transduction and were difficult to expand. Therefore, such assay system offered a clean background for the identification of small molecules having desirable reprogramming inducing activity. Using this system, compounds from a library of around 2000 known small molecules (see Experimental Procedures below) were screened and were identified as hits when they induced the appearance of ESC colonies that were strongly positive for ALP within 14-21 days after treatment. This image-based method provided a more accurate assessment of reprogramming as compared to homogenous reporter-based assay. BIX appeared to have the strongest effect with reproducible induction of more than 1-2 compact ESC-like colonies with high ALP expression. We observed that when MEFs were treated with BIX after OK viral transduction, compact colonies with strong ALP expression could be readily detected within approximately 14-21 days. These cells were also positive for Nanog, Oct4 and SSEA-1 expression. […] However, the reprogramming efficiency in MEFs transduced with OK and treated with BIX was still low, about 2 colonies/3.5×10^4 cells, in comparison to the four factor-induced reprogramming of MEFs or the OK/BIX NPC reprogramming (Shi, Y. et al., Cell Stem Cell, 2:525-528 (2008)). Therefore, we conducted a second screen using a similar protocol, but where BIX was added to the basal media after OK viral transduction. This provided a more permissive platform to identify new small molecules that could further improve reprogramming efficiency. More importantly, this second screen could facilitate discovery of small molecules that impact reprogramming in a more specific manner, for example by acting on signal transduction pathways rather than on histone or DNA modifying enzymes. In this second screen, we again assayed the library of around 2000 known small molecules (see Experimental Procedures), and confirmed two compounds that were able to act in a synergistic manner with BIX to improve reprogramming based on the criteria of the screen. […] Therefore, RG108 was not pursued further for this study. Instead, we focused our phenotypic and functional characterization on another small molecule that was identified in the second screen, BayK, an L-calcium channel agonist. […] Therefore, BayK might play a more specific role in the reprogramming process. When 129 MEFs were transduced with empty retrovirus (negative control); no colonies observed. When 129 MEFs were transduced with OK without small molecules; few small flattened colonies with weak ALP expression present. […] When OK-transduced MEFs were treated with BIX in combination with BayK, a significant increase in the number of ALP^+ colonies that closely resemble the mESC morphology could be observed (˜7 colonies) as compared to OK-transduced MEFs treated with BIX alone (˜2 colonies).
Primary 12952/SvPasCrlf (primary screen) or ROSA26^+/−/OG2^+/− (secondary screen) MEFs were plated onto Matrigel (1:50; BD Biosciences, Bedford, Mass.) coated dishes at a density of 3.5×10^4 cells per well of a 6-well plate. Twenty-four hours later, these cells were transduced overnight with defined retroviruses at 37° C., 5% CO2. […] (all products were from Invitrogen, Carlsbad, Calif., except where mentioned). […]

[2] = tested on: human primary fibroblasts (CRL2097 or BJ); assay: Reprogramming of human primary fibroblasts transduced with 4TFs; format: cell-based
Description: We tested known inhibitors of the TGFβ receptor and MEK on 1×10^4 [Feng, B. et al., Cell Stem Cell 4, 301-12 (2009)] human primary fibroblasts (CRL2097 or BJ) that were retrovirally transduced with the 4TFs (Oct4, Klf4, Sox2 and c-Myc), for their effects on reprogramming kinetics and efficiency. On day 7 (D7) post-infection, the compounds were added, individually or in combinations, and the cultures were examined for iPSCs over the next 1-3 weeks.
The Slc7a1-expressing human fibroblast cells were seeded at 1×10^5 cells/well of a 6 well plate on the day 1. On day 2, 0.25 ml of each retroviral supernatant was added to the cells in the presence of 6 μg/ml polybrene. A second round of transduction was done on day 3. Infection efficiency was estimated by fluorescence microscopy on cells transduced in parallel with GFP or RFP gene-carrying retroviruses. Seven days after initial transduction, fibroblasts were harvested by trypsinization and re-plated at 1×10^4 cells/well of a 6 well plate coated with matrigel (1:50 dilution, cat 354234, BD Biosciences). For compound treatment, the cells were cultured in human reprogramming medium (DMEM/F12, 20% Knockout serum replacer, lx MEM Non-Essential amino acid, lx glutamax, 0.11 mM 2-Mercaptoethanol, 20 ng/ml bFGF and 1,000 U/ml LIF) and were treated with 2 μM SB431542 (Stemgent), 0.5 μM PD0325901 (Stemgent), or combinations of the compounds. The media were changed every 2-3 days depending on the cell density. Seven days after compound treatment, either the plates were fixed and stained for Alkaline phosphatase (ALP) activity, or stained for protein markers, or the cultures were continued with or without indicated splitting by trypsinization till day 30. For split cultures, the cells were split (1:4) and re-plated onto irradiated CF-1 MEF feeder layer (2.5×10^5 cells/well) in each well of 6 well plate and were split (1:10) again on day 21. The cells were maintained in the same media and compound cocktail described above except for the concentrations of PD0325901 (0.5 μM for D14 and 1 μM for D21) and SB431542 (0.5-1 μM after D14). The iPSC colonies were subsequently maintained in conventional hESC media in the absence of the above compounds.
Alkaline phosphatase staining was performed using ALP detection kit (cat no: SCR004, Chemicon) according to the product instructions. For immunocytochemistry, cells were fixed in 4% paraformaldehyde (10 min, RT), washed twice with PBS, blocked using 5% normal donkey serum (Chemicon) and 0.1% TritonX-100 (15 min, RT) and then treated with primary antibodies overnight at 4° C. The primary antibodies used were anti-NANOG (cat no: AB9220, Chemicon, 1:1,000); anti-OCT4 (cat no: sc-5279, Santa Cruz biotech, 1:200), anti-SSEA 4 (cat no: mab4304, Chemicon, 1:500), anti-Tra-1-81 (cat 560123, BD Biosciences, 1:100), anti-Tra-1-81 (mAb 4381, Chemicon, 1:500), anti-βIII TUBULIN (cat no: MMS-435P, Covance Research Products Inc, 1:1000), anti-PDX 1 (1:500) (a kind gift from Dr. C. Wright), anti-BRACHYURY (cat No: AF2085, R & D, final concentration 0.2 μg/ml). The cells were washed twice with PBS and then treated with secondary antibodies for 1 hour at room temperature. The secondary antibodies used were Alexa fluor 488 donkey anti-rabbit or anti-mouse IgG (Invitrogen, 1:1,000) and Alexa fluor 555 donkey anti-rabbit or anti-mouse IgG (Invitrogen, 1:1,000). Nuclei were stained with 0.5 μg/ml DAPI (Sigma). Images were captured using a Nikon Eclipse TE2000-U/X-cite 120 EXFO microscope with a photometric CoolSnap HQ2 camera.
We tested the TGFβ receptor inhibitor (SB431542), MEK inhibitor (PD0325901) and GSK-3 inhibitor (CHIR99021), on human fibroblast crl2097 that were retrovirally transduced with Oct4, Klf4, Sox2 and c-Myc, for their effects on reprogramming kinetics and efficiency. Conditions are the same as set forth in Example 5. Data were collected 8 days after compound treatment.

mouse fibroblasts = assay: Reprogramming of mouse fibroblasts with exogenous poly-Arg transcription factor proteins; format: cell-based; settings: cells incubated with transcription factor proteins plus agent
Description: Mouse fibroblasts were grown in mESC medium supplemented with 8 μg/ml of either Oct4/Sox2/Klf4 or Oct4/Sox2/Klf4/Myc (all proteins comprising poly-Arg as described above) for 6-8 hours, washed, and incubated for 2-3 days in mESC media without the above-listed transcription factors. This (4-12 hours with, 1-3 days without) was repeated a number (1, 2, 3, 4, or more) of times and then the cells were cultured in mESC for two weeks.
Mouse fibroblasts were grown in mESC growth medium [Knockout DMEM (Invitrogen) supplemented with 10% ES-FBS+10% KSR, 0.1 mM 2-ME, 1% Glutamax, 1% Non-essential amino acids, 1% EmbryoMax ESC Qualified Nucleosides (Millipore), and 10^3 units/ml LIF (ESGRO, Chemicon International)] supplemented with 8 μg/ml of Oct4/Sox2/Klf4/Myc (all four transcription factors are tagged with poly-Arg […]; SEQ ID NO:2) for 4-12 hours, followed by culturing the cells in the absence of the Oct4/Sox2/Klf4/Myc polypeptides for one day. This procedure was repeated 4 times. The cells were then cultured in mESC medium for another two weeks. iPSC clones were detected by colony morphology and expression of pluripotency markers. An intermediate iPSC clone, which expresses ALP but not Oct4 (Oct4), was dissociated with Trypsin-EDTA. The clone was then expanded by continuous culturing with regular mESC medium or medium supplemented with 0.5 μM PD0325901, 3 μM CHIR99021, 0.5 μM A-83-01. The number of Oct4-positive colonies were counted 2 weeks after small molecule treatment (FIG. 14).

[3] = tested on: primary OG2 neural progenitor cells; assay: iPS cell induction from neural progenitor cells after retroviral transduction; format: cell-based, mouse; settings: applied at late stage of reprogramming (after Oct4-GFP activation)
Description: The reporter neural progenitor cells were generated using a well established protocol by differentiating the Oct4-GiP mESCs grown in monolayer on gelatin in a chemically defined medium/CDM condition in the absence of serum and other growth factors/cytokines at low cell density for eight days, followed by neurophere formation and subsequent serial passaging in single cells in neural cell expansion media supplemented with 10 ng/ml of bFGF and EGF in monolayer for over six passages/24 days. The resulting neural progenitor cells were homogenous by cell morphology and neural marker expression, and were confirmed to be GFP negative and puromycin sensitive. Such neural progenitor cells plated in monolayer in conventional mESC growth media were transduced with combinations of four, three, or two of the four factors, followed by treating the transduced cells with individual small molecules from a small known drug collection in a typical 6-well format. The compound treatment and culture were continued for additional ten days before puromycin was added. The number of green and puro-resistant colonies was counted at day 14. In comparison to the only four-gene transduced neural cells as the positive control, compound conditions that generated more green colonies than the corresponding gene-only conditions were picked as primary hits. To further confirm these primary hit conditions, we chose to use a late passage of mouse CNS neural progenitor cells (Do, J. T. et al., Stem Cells 25, 1013-1020 (2007)) that were derived from fetal brain of OG2^+/−/ROSA26^+/− transgenic mice (which contain an Oct4-GFP reporter) and expanded in monolayer under the same neural CDM condition as the above with 10 ng/ml of bFGF and EGF. Such cells truly from a non-pluripotent tissue would be devoid of concerns of any contaminating ES cell in the above screening system, which is highly unlikely with all appropriate controls. Similar culture conditions and reprogramming assays were performed using the OG2 neural progenitor cells except that puromycin was not used and green colonies were picked out and characterized by staining of Nanog, SSEA1 and ALP.
mESC-derived or primary OG2 mouse neural progenitor cells were plated into Matrigel (1:50, BD Biosciences) coated 6-well plates at 3.5×10^4 cells/well in the neural progenitor cell expansion media. After one day these cells were transduced with retrovirus for overnight, and the medium was changed into the mESC growth media [DMEM, 5% FBS, 10% KSR, 1× non-essential amino acids (Gibco), 2 mM L-glutamine (Gibco), 0.1 mM β-mercaptoethanol (Gibco) and 10^3 unit/ml LIF (Chemicon)] with or without BIX01294 (0.5-1 μM). GFP-positive iPS cell colonies appeared after 9-14 days, and were picked out and expanded on MEF feeder cells with the mESC growth media.

CCN(CC)CCCCNc1ncc2cc(-c3cc(OC)cc(OC)c3)c(NC(=O)NC(C)(C)C)nc2n1 [PD173074]
hit in second synergist screen [1]: primary hits

O=C(NOC[C@H](O)CO)c1ccc(F)c(F)c1Nc1ccc(I)cc1F [PD0325901]
ALP+ colonies with hESC-like morphology (FIG. 7A) ([2]; 4TFs transduced fibroblasts, 7 days after compound treatment, SB431542 at 2 μM): yielded none
colonies stained positive for SSEA4 and NANOG ([2]; day 7 post-treatment (D14)): no NANOG^+ colonies were observed
efficiency and speed of development of pluripotent cells (mouse fibroblasts): improved efficiency and speed of development of pluripotent cells
growth of non-iPS cells and iPS cells (selection) [3]: inhibits growth of non-iPS cells while it effectively promotes growth and stable reprogramming of iPS cells

O=C(O)C(Cc1c[nH]c2ccccc12)N1C(=O)c2ccccc2C1=O (stereo not drawn) [RG108]
reprogramming of OK transduced MEFs (second screen) ([1]; in the presence of BIX): enhanced reprogramming of OK transduced MEFs in the presence of BIX

Cc1cc(Nc2ncc3c(n2)N(C)C(=O)N(c2cc(NC(=O)c4cccc(C(F)(F)F)c4)ccc2C)C3)n(C)n1 [pluripotin]
hit in second synergist screen [1]: primary hits

c1nc2nc(Nc3ccc(N4CCOCC4)cc3)nc(NC3CCCCC3)c2[nH]1 [reversine]
hit in second synergist screen [1]: primary hits

TGFβ
effect on 4 factor-mediated reprogramming of fibroblasts ([2]; addition of TGFβ): had an inhibitory effect on 4 factor-mediated reprogramming of fibroblasts
